Results published in patent publication US20130039928A1, “COMPOSITIONS AND METHODS FOR REVERSING CORTICOSTEROID RESISTANCE OR TREATING RESPIRATORY INFECTIONS” (priority 2010, published 2013).

Test system: Pseudomonas aeruginosa
Assay: Bacterial clearance by THP-1 macrophages
Assay type: cell-based
Details: after exposure with Poly(I) (10 μg/ml)
Text: The above data collectively indicate that the activation of Nrf2 improves bacterial phagocytosis and clearance by COPD macrophages. The dependence of Nrf2 on bacterial phagocytosis was investigated. […] This observations confirmed Nrf2-dependent modulation of bacterial phagocytosis and clearance. To determine the mechanisms by which Nrf2 regulates phagocytosis, microarray analysis was employed. […] To address whether sulforaphane-induced expression of MARCO correlates with bacterial clearance, differentiated human THP-1 macrophages were used. Bacterial clearance by sulforaphane treated THP-1 macrophages after exposure with polyinosinic acid (Poly(I)) was analyzed. Poly(I) is a non-selective class A scavenger receptor blocker that inhibits MARCO mediated bacterial uptake and clearance (G. M. DeLoid, T. H. Sulahian, A. Imrich, L. Kobzik, PLoS One 4, e6209 (2009)). […] Next, phagocytosis of FITC-Pseudomonas aeruginosa was examined in THP-1 macrophages with knockdown of MARCO using lentivirus-encoded shRNA (MARCO shRNA).
BMDM were isolated by culturing bone marrow cells in the presence of 10 ng/ml granulocyte-macrophage colony-stimulating factor (PeproTech) for 7 days. Murine macrophages were cultured in RPMI 1640 medium supplemented with 10% FBS and 1% penicillin-streptomycin. […]

polyinosinic acid [Poly(I)] was tested, and the “bacterial clearance by sulforaphane treated THP-1 macrophages” value was “significantly impaired sulforaphane ability to improve bacterial clearance”.
